The target of one test is T1, human orexin-1 receptor (Homo sapiens, UniProt O43613).
T1 construct: expressed in transfected cells; host or cells: Chinese hamster ovary (CHO) cells, G418 selection
T1 sequence (O43613 1-425): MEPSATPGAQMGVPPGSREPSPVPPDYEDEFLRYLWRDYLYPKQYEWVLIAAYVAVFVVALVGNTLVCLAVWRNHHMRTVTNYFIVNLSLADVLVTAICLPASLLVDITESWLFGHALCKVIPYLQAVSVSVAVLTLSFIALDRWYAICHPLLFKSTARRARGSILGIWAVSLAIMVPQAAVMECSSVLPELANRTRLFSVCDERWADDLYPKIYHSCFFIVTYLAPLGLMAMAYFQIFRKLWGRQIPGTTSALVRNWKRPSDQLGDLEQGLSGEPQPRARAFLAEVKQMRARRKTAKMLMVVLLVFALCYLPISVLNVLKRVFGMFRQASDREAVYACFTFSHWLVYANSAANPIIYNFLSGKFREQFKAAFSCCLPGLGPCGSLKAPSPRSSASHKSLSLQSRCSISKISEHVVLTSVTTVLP
Nature of the test: Intracellular calcium measurements (FLIPR), orexin receptor antagonistic activity. It is filed as cell-based. Particulars: FLIPR2; CHO cells expressing human orexin-1 receptor; 3 nM orexin-A; read-out: OX1 IC50. The procedure: (§1) The orexin receptor antagonistic activity of the compounds of formula (I) is determined in accordance with one of the following experimental methods.
(§2) Intracellular Calcium Measurements:
(§3) Chinese hamster ovary (CHO) cells expressing the human orexin-1 receptor and the human orexin-2 receptor, respectively, are grown in culture medium (Ham F-12 with L-Glutamine) containing 300 μg/ml G418, 100 U/ml penicillin, 100 μg/ml streptomycin and 10% heat inactivated fetal calf serum (FCS). The cells are seeded at 20'000 cells/well into 384-well black clear bottom sterile plates (Greiner). The seeded plates are incubated overnight at 37° C. in 5% CO2.
(§4) Human orexin-A as an agonist is prepared as 1 mM stock solution in MeOH:water (1:1), diluted in HBSS containing 0.1% bovine serum albumin (BSA), NaHCO3:0.375 g/l and 20 mM HEPES for use in the assay at a final concentration of 3 nM.
(§5) Antagonists are prepared as 10 mM stock solution in DMSO, then diluted in 384-well plates, first in DMSO, then in HBSS containing 0.1% bovine serum albumin (BSA), NaHCO3: 0.375 g/l and 20 mM HEPES.
(§6) On the day of the assay, 50 μl of staining buffer (HBSS containing 1% FCS, 20 mM HEPES, NaHCO3: 0.375 g/l, 5 mM probenecid (Sigma) and 3 μM of the fluorescent calcium indicator fluo-4 AM (1 mM stock solution in DMSO, containing 10% pluronic) is added to each well.
(§7) The 384-well cell-plates are incubated for 50 min at 37° C. in 5% CO2 followed by equilibration at RT for 30-120 min before measurement.
(§8) Within the Fluorescent Imaging Plate Reader (FLIPR2 or FLIPR Tetra, Molecular Devices), antagonists are added to the plate in a volume of 10 μl/well, incubated for 10 min and finally 10 μl/well of agonist is added. Fluorescence is measured for each well at 1 second intervals, and the height of each fluorescence peak is compared to the height of the fluorescence peak induced by 3 nM orexin-A with vehicle in place of antagonist. For each antagonist, the IC50 value (the concentration of compound needed to inhibit 50% of the agonistic response) is determined. With the FLIPR Tetra, non-optimized and optimized conditions were used. Optimized conditions were achieved by adjustment of pipetting speed and cell splitting regime. The calculated IC50 values of the compounds may fluctuate depending on the daily cellular assay performance. Fluctuations of this kind are known to those skilled in the art.
In general terms: Calcium flux is commonly read through the fluorescence of an indicator in the cells.

The target in the next test is T2, human orexin-2 receptor (Homo sapiens, UniProt O43614).
T2 construct: expressed in transfected cells; host or cells: Chinese hamster ovary (CHO) cells, G418 selection
T2 sequence (O43614 1-444): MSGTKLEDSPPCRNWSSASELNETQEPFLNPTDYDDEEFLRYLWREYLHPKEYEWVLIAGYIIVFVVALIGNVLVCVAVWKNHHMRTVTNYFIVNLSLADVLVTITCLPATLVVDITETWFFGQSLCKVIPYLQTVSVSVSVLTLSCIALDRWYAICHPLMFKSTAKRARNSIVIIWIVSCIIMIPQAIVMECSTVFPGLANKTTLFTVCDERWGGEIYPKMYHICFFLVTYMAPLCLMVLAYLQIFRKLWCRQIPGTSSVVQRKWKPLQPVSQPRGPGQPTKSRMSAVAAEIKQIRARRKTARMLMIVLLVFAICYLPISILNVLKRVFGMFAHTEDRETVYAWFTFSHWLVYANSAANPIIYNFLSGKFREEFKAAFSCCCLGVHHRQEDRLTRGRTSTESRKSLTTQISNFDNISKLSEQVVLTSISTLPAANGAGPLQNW
The test is described as above. It is filed as cell-based. Particulars: FLIPR2; CHO cells expressing human orexin-2 receptor; 3 nM orexin-A; read-out: OX2 IC50. The procedure: as §1, §2, §3, §4, §5, §6, §7, §8

The record followed here is patent publication US8063099B2, “Trans-3-aza-bicyclo[3.1.0]hexane derivatives” (Actelion Pharmaceuticals Ltd., priority 2007, dated 2011).

For the compound `O=C(NC[C@@H]1[C@H]2C[C@H]2CN1C(=O)c1ccccc1-c1ccccc1)c1cccc2occc12` [Example 2, Benzofuran-4-carboxylic acid[(1S,2S,5R)-3-(biphenyl-2-carbonyl)-3-aza-bicyclo[3.1.0]hex-2-ylmethyl]-amide], the IC50 (in general, the concentration needed to halve the response being measured) was 34 nM on human orexin-1 receptor and 102 nM on human orexin-2 receptor.

Regarding `Cc1nc(C(=O)N2C[C@@H]3C[C@@H]3[C@H]2CNC(=O)c2c(C)nc3sccn23)c(-c2ccccc2C)s1` [Example 11, 6-Methyl-imidazo[2,1-b]thiazole-5-carboxylic acid[(1S,2S,5R)-3-(2-methyl-5-o-tolyl-thiazole-4-carbonyl)-3-aza-bicyclo[3.1.0]hex-2-ylmethyl]-amide], the IC50 on human orexin-1 receptor stood at 14 nM; at human orexin-2 receptor, 66 nM.

`Cc1nc2sccn2c1C(=O)NC[C@@H]1[C@H]2C[C@H]2CN1C(=O)c1ccccc1-c1ccccc1F` [Example 19, 6-Methyl-imidazo[2,1-b]thiazole-5-carboxylic acid[(1S,2S,5R)-3-(2′-fluoro-biphenyl-2-carbonyl)-3-aza-bicyclo[3.1.0]hex-2-ylmethyl]-amide]: the IC50 is 22 nM at human orexin-1 receptor and 174 nM at human orexin-2 receptor.

Turning to `Cc1ncc(C(=O)N2C[C@@H]3C[C@@H]3[C@H]2CNC(=O)c2c(C)nc3sccn23)c(-c2ccccc2)n1` [Example 23, 6-Methyl-imidazo[2,1-b]thiazole-5-carboxylic Acid[(1S,2S,5R)-3-(2-methyl-4-phenyl-pyrimidine-5-carbonyl)-3-aza-bicyclo[3.1.0]hex-2-ylmethyl]-amide], the IC50 on human orexin-1 receptor was 35 nM; at human orexin-2 receptor, 338 nM.

Take `Cc1nc2sccn2c1C(=O)NC[C@@H]1[C@H]2C[C@H]2CN1C(=O)c1ccccc1-c1csc(N)n1` [Example 24, 6-Methyl-imidazo[2,1-b]thiazole-5-carboxylic acid{(1S,2S,5R)-3-[2-(2-amino-thiazol-4-yl)-benzoyl]-3-aza-bicyclo[3.1.0]hex-2-ylmethyl}-amide]: the IC50 on human orexin-1 receptor was determined as 102 nM; at human orexin-2 receptor, 647 nM.

Take `Cc1cccc(-c2sc(Br)nc2C(=O)N2C[C@@H]3C[C@@H]3[C@H]2CNC(=O)c2c(C)nc3sccn23)c1` [Example 29, 6-Methyl-imidazo[2,1-b]thiazole-5-carboxylic acid[(1S,2S,5R)-3-(2-bromo-5-m-tolyl-thiazole-4-carbonyl)-3-aza-bicyclo[3.1.0]hex-2-ylmethyl]-amide]: the IC50 at human orexin-1 receptor worked out at 4 nM; on human orexin-2 receptor, 27 nM.

Consider `Cc1nc2sccn2c1C(=O)NC[C@@H]1[C@H]2C[C@H]2CN1C(=O)c1ccccc1C1CCCCC1` [Example 31, 6-Methyl-imidazo[2,1-b]thiazole-5-carboxylic acid[(1S,2S,5R)-3-(2-cyclohexyl-benzoyl)-3-aza-bicyclo[3.1.0]hex-2-ylmethyl]-amide], for which the IC50 at human orexin-1 receptor amounted to 960 nM; on human orexin-2 receptor it was 167 nM.

As for `Cc1nc2sccn2c1C(=O)NC[C@@H]1[C@H]2C[C@H]2CN1C(=O)c1ccccc1-c1cccs1` [Example 32, 6-Methyl-imidazo[2,1-b]thiazole-5-carboxylic acid[(1S,2S,5R)-3-(2-thiophen-2-yl-benzoyl)-3-aza-bicyclo[3.1.0]hex-2-ylmethyl]-amide], the IC50 at human orexin-1 receptor was found to be 15 nM; at human orexin-2 receptor, 55 nM.

Turning to `Cc1nc(-c2cccc(F)c2)c(C(=O)N2C[C@@H]3C[C@@H]3[C@H]2CNC(=O)c2c(C)nc3sccn23)s1` [Example 37, 6-Methyl-imidazo[2,1-b]thiazole-5-carboxylic acid{(1S,2S,5R)-3-[4-(3-fluoro-phenyl)-2-methyl-thiazole-5-carbonyl]-3-aza-bicyclo[3.1.0]hex-2-ylmethyl}-amide], the concentration for half-maximal inhibition (IC50) was 85 nM on human orexin-1 receptor and 35 nM on human orexin-2 receptor.

In the case of `Cc1cccc(-c2sc(C)nc2C(=O)N2C[C@@H]3C[C@@H]3[C@H]2CNC(=O)c2cc(F)cc3c2OCOC3)c1` [Example 42, 6-Fluoro-4H-benzo[1,3]dioxine-8-carboxylic Acid[(1S,2S,5R)-3-(2-methyl-5-m-tolyl-thiazole-4-carbonyl)-3-aza-bicyclo[3.1.0]hex-2-ylmethyl]-amide], the values for the IC50 at human orexin-1 receptor and at human orexin-2 receptor were 49 nM and 12 nM, respectively.

For the compound `Cc1cccc(-c2sc(C)nc2C(=O)N2C[C@@H]3C[C@@H]3[C@H]2CNC(=O)c2cccc3c2OC(C)(C)C3)c1` [Example 43, 2,2-Dimethyl-2,3-dihydro-benzofuran-7-carboxylic acid[(1S,2S,5R)-3-(2-methyl-5-m-tolyl-thiazole-4-carbonyl)-3-aza-bicyclo[3.1.0]hex-2-ylmethyl]-amide], the values for the IC50 at human orexin-1 receptor and at human orexin-2 receptor were 26 nM and 19 nM, respectively.

For `Cc1cccc(-c2sc(C)nc2C(=O)N2C[C@@H]3C[C@@H]3[C@H]2CNC(=O)c2cccc(C(F)(F)F)c2)c1` [Example 45, N-[(1S,2S,5R)-3-(2-Methyl-5-m-tolyl-thiazole-4-carbonyl)-3-aza-bicyclo[3.1.0]hex-2-ylmethyl]-3-trifluoromethyl-benzamide], the IC50 at human orexin-1 receptor turned out to be 110 nM; at human orexin-2 receptor, 61 nM.

Turning to `Cc1cccc(-c2sc(C)nc2C(=O)N2C[C@@H]3C[C@@H]3[C@H]2CNC(=O)c2c(C)noc2C)c1` [Example 51, 3,5-Dimethyl-isoxazole-4-carboxylic Acid[(1S,2S,5R)-3-(2-methyl-5-m-tolyl-thiazole-4-carbonyl)-3-aza-bicyclo[3.1.0]hex-2-ylmethyl]-amide], the IC50 is 81 nM at human orexin-1 receptor and 41 nM on human orexin-2 receptor.

Turning to `Cc1cccc(-c2sc(C)nc2C(=O)N2C[C@@H]3C[C@@H]3[C@H]2CNC(=O)c2cccc3ccccc23)c1` [Example 52, Naphthalene-1-carboxylic acid[(1S,2S,5R)-3-(2-methyl-5-m-tolyl-thiazole-4-carbonyl)-3-aza-bicyclo[3.1.0]hex-2-ylmethyl]-amide], the figures for the IC50 on human orexin-1 receptor and on human orexin-2 receptor were 155 nM and 228 nM, respectively.

As for `Cc1cccc(-c2sc(C)nc2C(=O)N2C[C@@H]3C[C@@H]3[C@H]2CNC(=O)c2nccc3ccccc23)c1` [Example 54, Isoquinoline-1-carboxylic Acid[(1S,2S,5R)-3-(2-methyl-5-m-tolyl-thiazole-4-carbonyl)-3-aza-bicyclo[3.1.0]hex-2-ylmethyl]-amide], the values for the IC50 at human orexin-1 receptor and on human orexin-2 receptor were 26 nM and 18 nM, respectively.

As for `Cc1cccc(-c2sc(C)nc2C(=O)N2C[C@@H]3C[C@@H]3[C@H]2CNC(=O)c2n[nH]c3ccccc23)c1` [Example 58, 1H-Indazole-3-carboxylic Acid[(1S,2S,5R)-3-(2-methyl-5-m-tolyl-thiazole-4-carbonyl)-3-aza-bicyclo[3.1.0]hex-2-ylmethyl]-amide], the IC50 turned out to be 37 nM on human orexin-1 receptor and 57 nM at human orexin-2 receptor.

For the compound `Cc1nc(C(=O)N2C[C@@H]3C[C@@H]3[C@H]2CNC(=O)c2cccc3c2OC(C)(C)C3)c(-c2cccc(Cl)c2)s1` [Example 73, 2,2-Dimethyl-2,3-dihydro-benzofuran-7-carboxylic Acid{(1S,2S,5R)-3-[5-(3-chloro-phenyl)-2-methyl-thiazole-4-carbonyl]-3-aza-bicyclo[3.1.0]hex-2-ylmethyl}-amide], the IC50 on human orexin-1 receptor stood at 21 nM; at human orexin-2 receptor it was 9 nM.
